What all share (assay type): functional
For test [1], the system named is Moraxella catarrhalis. Description: Bacteriostatic activity against erythromycin-susceptible Moraxella catarrhalis 11B366 after 20 hrs by two-fold microbroth dilution method. As to conditions: 11B366, 20 h.
In test [2] the test system is Staphylococcus aureus. Description: Bacteriostatic activity against methicillin-resistant Staphylococcus aureus PU32 expressing inducible ermA after 20 hrs by two-fold microbroth dilution method. As to conditions: PU32, 20 h.
Test [3] relates to Staphylococcus aureus. Description: Bactericidal activity against methicillin-resistant Staphylococcus aureus PU32 expressing inducible ermA incubated for 20 hrs followed by sub-culturing for 24 hrs in absence of compound.
Test [4] has as its system Streptococcus pyogenes. Description: Ratio of MBC to MIC for Streptococcus pyogenes 01-968 expressing inducible ermA.
Test [5] has as its system Streptococcus pyogenes. Description: Bacteriostatic activity against Streptococcus pyogenes 12-207 expressing mef after 20 to 24 hrs by two-fold microbroth dilution method.
Test [6] relates to Streptococcus pyogenes. Description: Ratio of MBC to MIC for Streptococcus pyogenes 12-207 expressing mef.
The next test concerns Haemophilus influenzae. Description: Bacteriostatic activity against azithromycin-susceptible/ampicillin-resistant Haemophilus influenzae 11P307 after 20 to 24 hrs by two-fold microbroth dilution method.
Test [7] relates to Moraxella catarrhalis. Description: Ratio of MBC to MIC against erythromycin-susceptible Moraxella catarrhalis 11B366.
Test [8] relates to Moraxella catarrhalis. Description: Bactericidal activity against erythromycin-susceptible Moraxella catarrhalis 11B366 incubated for 20 hrs followed by sub-culturing for 24 hrs in absence of compound.
The test system of test [9] is Streptococcus pyogenes. Description: Bactericidal activity against Streptococcus pyogenes 01-968 expressing inducible ermA incubated for 20 to 24 hrs followed by sub-culturing for 24 hrs in absence of compound.
For test [10], the system named is Streptococcus pyogenes. Description: Bacteriostatic activity against Streptococcus pyogenes 01-968 expressing inducible ermA after 20 to 24 hrs by two-fold microbroth dilution method.
Test [11] deals with Streptococcus pneumoniae. Description: Bactericidal activity against penicillin-susceptible Streptococcus pneumoniae PU09 incubated for 20 to 24 hrs followed by sub-culturing for 24 hrs in absence of compound.
Test [12] concerns Streptococcus pneumoniae. Description: Ratio of MBC to MIC for penicillin-susceptible Streptococcus pneumoniae PU09.
Test [13] relates to Staphylococcus aureus. Description: Bacteriostatic activity against methicillin-resistant Staphylococcus aureus PU20 expressing constitutive ermC after 20 hrs by two-fold microbroth dilution method. As to conditions: PU20, 20 h.
Test [14] has as its system Streptococcus pyogenes. Description: Bactericidal activity against Streptococcus pyogenes 12-207 expressing mef incubated for 20 to 24 hrs followed by sub-culturing for 24 hrs in absence of compound.
Test [15] concerns Streptococcus pneumoniae. Description: Bacteriostatic activity against […] Streptococcus pneumoniae ATCC 49619 after 20 to 24 hrs by two-fold microbroth dilution method.
For test [16], the system named is Streptococcus pneumoniae. Description: Bacteriostatic activity against penicillin-susceptible Streptococcus pneumoniae PU09 after 20 to 24 hrs by two-fold microbroth dilution method.
The subject of test [17] is Streptococcus pneumoniae. Description: Bactericidal activity against […] Streptococcus pneumoniae ATCC 49619 incubated for 20 to 24 hrs followed by sub-culturing for 24 hrs in absence of compound.
Test [18] concerns Moraxella catarrhalis. Description: Ratio of MBC to MIC against erythromycin-susceptible Moraxella catarrhalis 13L332.
The subject of test [19] is Streptococcus pneumoniae. Description: Ratio of MBC to MIC for […] Streptococcus pneumoniae ATCC 49619.
Test [20] has as its system Moraxella catarrhalis. Description: Bactericidal activity against erythromycin-susceptible Moraxella catarrhalis 13L332 incubated for 20 hrs followed by sub-culturing for 24 hrs in absence of compound.
Test [21] has as its system Moraxella catarrhalis. Description: Bacteriostatic activity against erythromycin-susceptible Moraxella catarrhalis 13L332 after 20 hrs by two-fold microbroth dilution method. As to conditions: 13L332, 20 h.
The test system of test [22] is Staphylococcus aureus. Description: Bactericidal activity against methicillin-resistant Staphylococcus aureus PU20 expressing constitutive ermC incubated for 20 hrs followed by sub-culturing for 24 hrs in absence of compound.

Molecules are shown by their SMILES. In brackets after ≈: the same amount, converted by molar mass. Where only a bound is given, the exact number is not on record here.

As to `C#CCN(C)[C@H]1C[C@@H](C)O[C@@H](O[C@@H]2[C@@H](C)C(=O)[C@@H](C)C(=O)O[C@H](CC)[C@@]3(C)OC(=O)O[C@@H]3[C@@H](C)/C(=N/OC/C=C/c3cnc4ccccc4c3)[C@H](C)C[C@@]2(C)OC)[C@@H]1O`, the MIC is 32 µg/mL (≈ 39 µM) against Moraxella catarrhalis [1]; 16 µg/mL (≈ 19.5 µM) in the test on Staphylococcus aureus [2]; 1 µg/mL (≈ 1.22 µM) against Streptococcus pyogenes [5]; more than 256 µg/mL in the test on Haemophilus influenzae; 0.5 µg/mL (≈ 0.61 µM) against Streptococcus pyogenes [10]; more than 256 µg/mL against Staphylococcus aureus [13]. Further, the MIC was 0.25 µg/mL (≈ 0.305 µM) in the test with Streptococcus pneumoniae [15] and 1 µg/mL (≈ 1.22 µM) in the test with Streptococcus pneumoniae [16]. Moreover, the MBC against Staphylococcus aureus [3] is more than 16 µg/mL; against Moraxella catarrhalis [8], more than 256 µg/mL; against Streptococcus pyogenes [9], more than 4 µg/mL; in the test on Streptococcus pneumoniae [11], 4 µg/mL (≈ 4.88 µM); against Streptococcus pyogenes [14] it was more than 8 µg/mL; with Streptococcus pneumoniae [17], 1 µg/mL (≈ 1.22 µM). The Ratio is on record as more than 8 with Streptococcus pyogenes [4], more than 8 in the test on Streptococcus pyogenes [6], more than 8 in the test on Moraxella catarrhalis [7] and 4 in the test on Streptococcus pneumoniae [12].

For the compound `CC[C@H]1OC(=O)[C@@](C)(F)[C@H](OC(=O)Cc2ccccn2)[C@H](C)[C@@H](O[C@@H]2O[C@H](C)C[C@H](N(C)C)[C@H]2O)[C@](C)(OC)C[C@@H](C)/C(=N\OC)[C@H](C)[C@H]2OC(=O)O[C@@]21C`, the MIC was more than 256 µg/mL with Staphylococcus aureus [2]; 64 µg/mL (≈ 81.9 µM) with Streptococcus pyogenes [10]; 32 µg/mL (≈ 40.9 µM) against Moraxella catarrhalis [21]; more than 256 µg/mL against Staphylococcus aureus [13]; 64 µg/mL (≈ 81.9 µM) in the test with Streptococcus pneumoniae [15]; 32 µg/mL (≈ 40.9 µM) against Streptococcus pneumoniae [16]. The Ratio is given as 2 in the test with Moraxella catarrhalis [18] and 1 in the test on Streptococcus pneumoniae [19]. For the same compound, the minimum bactericidal concentration (MBC) is more than 256 µg/mL in the test on Staphylococcus aureus [3]; 64 µg/mL (≈ 81.9 µM) against Moraxella catarrhalis [20]; more than 64 µg/mL against Streptococcus pyogenes [9]; more than 64 µg/mL against Streptococcus pneumoniae [11]; more than 256 µg/mL in the test with Staphylococcus aureus [22]; 64 µg/mL (≈ 81.9 µM) against Streptococcus pneumoniae [17].

As for `CC[C@H]1OC(=O)[C@H](C)[C@H](OC(=O)c2ccccn2)[C@H](C)[C@@H](O[C@@H]2O[C@H](C)C[C@H](N(C)C)[C@H]2O)[C@](C)(OC)C[C@@H](C)/C(=N\OC)[C@H](C)[C@H]2OC(=O)O[C@@]21C`, the MIC with Staphylococcus aureus [2] was more than 256 µg/mL; with Streptococcus pyogenes [10], more than 64 µg/mL; against Moraxella catarrhalis [21], 32 µg/mL (≈ 42.7 µM); against Staphylococcus aureus [13] it was more than 256 µg/mL; with Streptococcus pneumoniae [15] it was 64 µg/mL (≈ 85.3 µM); in the test on Streptococcus pneumoniae [16], 64 µg/mL (≈ 85.3 µM). Moreover, the MBC was more than 256 µg/mL in the test with Staphylococcus aureus [3]; more than 64 µg/mL in the test with Moraxella catarrhalis [20]; more than 64 µg/mL against Streptococcus pyogenes [9]; more than 64 µg/mL in the test with Streptococcus pneumoniae [11]; more than 256 µg/mL against Staphylococcus aureus [22]; more than 64 µg/mL with Streptococcus pneumoniae [17].

In the case of `CC[C@H]1OC(=O)[C@H](C)[C@@H](OC(=O)Cc2ccccn2)[C@H](C)[C@@H](O[C@@H]2O[C@H](C)C[C@H](N(C)C)[C@H]2O)[C@](C)(OC)C[C@@H](C)/C(=N\OC/C=C/c2cccnc2)[C@H](C)[C@H]2OC(=O)O[C@@]21C`, the MIC was 256 µg/mL (≈ 295 µM) in the test on Staphylococcus aureus [2]; 64 µg/mL (≈ 73.8 µM) against Streptococcus pyogenes [10]; 32 µg/mL (≈ 36.9 µM) in the test on Moraxella catarrhalis [21]; more than 256 µg/mL against Staphylococcus aureus [13]; 16 µg/mL (≈ 18.5 µM) against Streptococcus pneumoniae [15]; 8 µg/mL (≈ 9.23 µM) with Streptococcus pneumoniae [16]. Further, the figures for the Ratio in the test on Moraxella catarrhalis [18], in the test on Streptococcus pneumoniae [19] and with Streptococcus pneumoniae [12] were 2, more than 4 and more than 8, respectively. Besides, the MBC against Staphylococcus aureus [3] is more than 256 µg/mL; with Moraxella catarrhalis [20], 64 µg/mL (≈ 73.8 µM); against Streptococcus pyogenes [9], more than 64 µg/mL; with Streptococcus pneumoniae [11], more than 64 µg/mL; against Staphylococcus aureus [22], more than 256 µg/mL; against Streptococcus pneumoniae [17], more than 64 µg/mL.

The values above are taken from ChEMBL document CHEMBL4004878, “Design, synthesis and structure-bactericidal activity relationships of novel 9-oxime ketolides and reductive epimers of acylides” (2017).
